Publication PMC3985417 (Journal of Medicinal Chemistry, 2014)

Experiment: in vitro
Conditions: human, HEK293 cell homogenate

Question: For CN(C)CCCN1c2ccccc2CCc2ccccc21 [Imipramine], which fraction unbound at 4 h is on record?
Answer: 0.59 ± 0.013
